Experimental data as given in patent US9464283B2, “Signaling compositions, methods, and systems for effecting plant growth and crop enhancement” (KamTec, LLC, priority 2013, dated 2016).
Values joined by “and” are separate entries in the source; they are usually repeats but may differ in a detail not shown here. Equal values may be shown once.

Legend:
[1] = test system: aphid infestation on cotton Bt plant; test: Aphid infestation of cotton Bt plants after seed soak; assay type: in vivo; details: 5 ppm BMPA seed soak
Description: In this preferred embodiment of the present invention, seeds were soaked for a period of 3 hours in the bio-regulator solution. Cotton Bt were selected and studied to determine if bio-regulator chemistry will enhance or influence the inserted Bt genes of the transgenic plant. The seeds were separated into two different sets on July 2. The first set, Set 1, was soaked in 5 ppm BMPA solution with 0.05% Kinetic®. The second set, Set 2, was soaked in water with 0.05% v/v Kinetic®. The solution was drained and the treated seeds planted in starter plastic trays. After germination and after the seedlings reached the height of four inches, the cotton Bt plants were transplanted into larger six-inch plastic containers. The cotton plants were placed outdoors for the duration of the study. The different sets of plants were regularly observed throughout this study.

Melody variety sunflower = test: Sunflower seed soak, field plots; assay type: in vivo; details: per Rep; 3 ppm, three hours seed soak
Excerpt: In this preferred embodiment of the present invention, sunflower seeds were selected from the Melody variety and were soaked for three hours in solutions containing 0.05% Tween 20 and BMTA or BMPA, at a concentration of 3 ppm. Another group of seeds of the same variety was soaked in a solution with only in 0.05% Tween 20 added (control). Following soaking, seeds were desiccated to storage moisture contents and BMTA, BMPA and control seeds were sown in three twenty-five foot plots (Reps) each on May 21 (plots were arranged in a randomized block design). On September 16, sunflower heads were harvested, with a harvest of around 20 heads per plot/Rep on average. The heads were hand-threshed to collect seeds. Moisture, count, and weight data was collected on seeds from each head.

'M-202' rice = test: Rice seed soak 24 hours, tap water irrigation; assay type: in vivo, Oryza sativa L.; details: 5 ppm, 24 hours soak
Description: In this preferred embodiment of the present invention, seeds are soaked in prepared bio-regulator solutions for a period of 24 hours. Rice seeds were selected from the same ‘M-202’ type grains as in the previous study. The bio-regulator solutions were prepared using 5 ppm BMPA solution. The solution was drained and seeds planted in starter plastic containers filled with potting soil. After germination and plant growth reaching height of four inches, rice seedlings were transplanted from their greenhouse containers to six-inch diameter plastic containers and placed outdoor. Again, two sets of three pots for the control and test group were used. These studies were also carried out using an increased amount of BMPA. The amount was increased from 1 ppm to 5 ppm, and the results of the study were similar to the results outlined in the paragraph above.

[2] = test system: 'M-202' medium-grain rice (Oryza sativa L.); test: Rice seed soak with NaCl irrigation (salt tolerance); assay type: in vivo; details: 5 ppm, 1500 ppm NaCl irrigation, planting through completion of study
Description: In another preferred embodiment of the present invention, seeds are soaked in prepared bio-regulator solutions for a period of three hours. Rice seeds were selected from ‘M-202’ medium-grain rice (Oryza sativa L.), (Reg. no 72) PI494105 type grains; this selection was meant to represent a typical California rice seed, and was not meant to be limiting. The bio-regulator solutions are prepared using 5 ppm BMTA solution with 0.05% v/v Kinetic® made by Helena Chemical Company. The solution was drained and the seeds planted in starter plastic containers with potting soil. After germination and having grown to 4 inches in height, the plants were transplanted into 6 inch diameter plastic containers. Two sets of three pots each were set up for this study; one set for the test group and one set for the control group. Both the control and test studies were irrigated with 1500 ppm NaCl solution from time of planting until the study was completed. The purpose of the NaCl irrigation was to determine the effect of the bio-regulator treatment in regards to salt tolerances.

SMILES: CN(CCOC(=O)COc1ccccc1)Cc1ccccc1 [BMPA]
- delay of the infestation of aphids [1]: ≤ 19 days
- % Moist (Melody variety sunflower): 13.52% and 13.93% and 12.37%
- observed growth of rice plant ('M-202' rice): enhanced growth

SMILES: Cc1ccc(C(=O)OCCN(C)Cc2ccccc2)cc1 [BMTA]
- % Moist (Melody variety sunflower): 13.10% and 13.01% and 14.82%
- observed growth of rice plant [2]: enhanced growth
